Experimental data taken from PMC8989696, “Characterization of furathiocarb metabolism in in-vitro human liver microsomes and recombinant cytochrome P450 enzymes” (Toxicology Reports, 2022).
Read-outs that look alike come from different tables or passages of the source.

How the values were obtained:
CYPs 1A1/2 = conditions: read-out: IC50, CYP 1A1/2; cited from earlier work
CYP2D6 = conditions: cited from earlier work
CYP3A4 [1] = conditions: cited from earlier work
2B6 = conditions: read-out: IC50, CYP 2B6; cited from earlier work
[2] = Furathiocarb biotransformation kinetics in individual human hepatic microsomes (10 donors); type: in vitro ADME; conditions: for Variation between the highest and lowest formation rate / Metabolite formation rate (lowest to highest of 10 donors): at 300 µM furathiocarb; for Variation between the highest and lowest formation rate: 10 donors; for Metabolite formation rate (lowest to highest of 10 donors): individual human hepatic microsomes
Method: The incubation mixture (ﬁnal volume of 200 µl of 0.1 M phosphate buffer) contained 50 and 100 µM furathiocarb, 0.15 mg pooled liver microsomal protein (n = 10), and 1 mM NADPH. The reaction was initiated by NADPH after a 2 min pre-incubation at + 37 °C and was incubated for 30 min at + 37 °C. The reaction stopped with ice-cold acetonitrile containing an internal standard.
Enzyme kinetic parameters of both the microsomal samples and rCYP enzymes were measured. The incubation mixture contained furathiocarb (2.5, 10, 25, 50, 150 and 300 µM). Incubation times were 20 and 30 min for microsomal samples and rCYPs, respectively. Otherwise incubation mixtures and methods were the same as in metabolite identification. The rate of sum of furathiocarb metabolite formation was linear at least up to 0.15 mg protein/ml and 30 min incubation time in the standard experimental conditions.
The standard incubation mixture contained 50 and 100 µM furathiocarb, 0.15 mg pooled liver microsomal protein (n = 10), and 1 mM NADPH in a ﬁnal volume of 200 µl of 0.1 M phosphate buffer (pH 7.4). Furathiocarb was prepared once a week in dimethylsulfoxide (DMSO; ﬁnal amount in the reaction medium 1.0%). After a 2-min incubation at +37 ◦C in a shaking incubator block, the reaction was started by adding NADPH. The mixture was incubated at +37 ◦C for 30 min and the reaction was stopped with 600 µl of ice-cold acetonitrile containing an internal standard. All incubations were carried out in triplicate.

2C19 = conditions: read-out: IC50, 2C19; range given jointly for CYP2C9, 2C19 and CYP2D6; no reference given; cited from earlier work
CYP2C9 = conditions: read-out: IC50, CYP2C9; range given jointly for CYP2C9, 2C19 and CYP2D6; no reference given; cited from earlier work
[3] = 54; cited from earlier work
CYP3A4 [4] = experiment: in vitro; conditions: ketoconazole 100 µM, pooled human hepatic microsomes
Method: Formation rates of metabolites were determined in the presence or absence of ketoconazole 100 µM.
Each point represents the mean ± S.D of three separate determinations.

[5] = read-out: IC50, CYP3A4 (MDZ-OH)

CCOP(=S)(OCC)Oc1nc(Cl)c(Cl)cc1Cl [Chlorpyrifos]
IC50 (CYPs 1A1/2): 2.9 µM
IC50 (CYP2D6; read-out: IC50, CYP 2D6): 3.3 µM
IC50 (CYP3A4 [1]; read-out: IC50, CYP 3A4): 4 µM
IC50 (2B6): 2.5 µM

CC1(C)Oc2c(O)cccc2C1=O [3-keto-7-phenolcarbofuran]
Metabolite amounts formed in HLM31 ([2]; HLM31, all furathiocarb concentrations used): below the limits of quantiﬁcation

CCCCN(CCCC)SN(C)C(=O)Oc1cccc2c1OC(C)(C)C2 [Carbosulfan]
IC50 (2C19): 16 to 25 µM
IC50 (CYP2D6; read-out: IC50, CYP2D6, range given jointly for CYP2C9, 2C19 and CYP2D6, no reference given): 16 to 25 µM
IC50 (CYP2C9): 16 to 25 µM
IC50 (CYP3A4 [1]; [5]): 11.2 µM

CNC(=O)Oc1cccc2c1OC(C)(C)C2 [Carbofuran, carbofuran]
Toxic class, WHO classification of pesticides by hazard [3]: 1b

CC(=O)N1CCN(c2ccc(OCC3COC(Cn4ccnc4)(c4ccc(Cl)cc4Cl)O3)cc2)CC1 (stereo not drawn) [Ketoconazole]
inhibition at 20 min, 100 µM (CYP3A4 [4]; human, microsomes, Inhibition of carbofuran metabolic pathway formation, various furathiocarb concentrations): 32 to 86%
Effect on the formation of metabolite A (CYP3A4 [4]): no effects

CCOC(=O)CCN(SN(C)C(=O)Oc1cccc2c1OC(C)(C)C2)C(C)C [benfuracarb]
IC50 (CYP3A4 [1]; [5]): 14.8 µM

CNC(=O)Oc1cccc2c1OC(C)(C)C2O (stereo not drawn) [3-hydroxycarbofuran]
Variation between the highest and lowest formation rate [2]: 10 fold
Metabolite formation rate (lowest to highest of 10 donors) [2]: 0.68 to 6.83 nmol/(mg protein min)

CC1(C)Oc2c(O)cccc2C1O (stereo not drawn) [3-hydroxy-7-phenolcarbofuran]
Variation between the highest and lowest formation rate [2]: 23 fold
Metabolite formation rate (lowest to highest of 10 donors) [2]: 0.02–0.52 nmol/(mg protein min)

CNC(=O)Oc1cccc2c1OC(C)(C)C2=O [3-ketocarbofuran]
Variation between the highest and lowest formation rate [2]: 54.4 fold
Metabolite formation rate (lowest to highest of 10 donors) [2]: 0.28–15.6 nmol/(mg protein min)

CC1(C)Cc2cccc(O)c2O1 [7-phenolcarbofuran]
Variation between the highest and lowest formation rate [2]: 2 fold
Metabolite formation rate (lowest to highest of 10 donors) [2]: 4.5–8.3 nmol/(mg protein min)
